Results reported in patent publication US10968264B2, “Cyclic peptide tyrosine tyrosine compounds as modulators of neuropeptide Y receptors” (priority 2016, dated 2021).
Numbered stars: 1 amine (or outer) side, 2 acyl side, 3 side chain; on linkers, the order of the positions; unused ones are H or OH. Bridge positions count the residues as written; N and C are the ends. Side chains are listed from the residue outwards. Peptide text beside a SMILES is read from it. * marks the point of attachment. Argψ(CH2NH)TyrNH2 = N=C(N)NCCC[C@@H](CN[C@@H](Cc1ccc(O)cc1)C(N)=O)N*; C18 diacid = O=C(O)CCCCCCCCCCCCCCCCC(=O)*; γGlu = O=C(O)[C@H](CCC(=O)[*:2])N[*:1]; AEEA = NCCOCCOCC(=O)O

Target: T1, human NPY2R (Homo sapiens, UniProt P49146)
T1 construct: expressed in transfected cells; host or cells: HEK cells
Assay: Human NPY2R cAMP in vitro potency assay (hY2 assay), inhibition of forskolin-induced cAMP, LANCE FRET
Assay type: cell-based
Method: The method used to test the potency of PYY analogs in vitro was a cell based assay designed to measure inhibition of forskolin-induced cAMP produced by adenylate cyclase through modulation of the human NPY2R Gi-protein coupled receptor.
Cells were thawed from cryopreservation and added to 15 ml of cell media (DMEM/high glucose (Cellgro), 10% FBS (Hyclone), 1% Pen/Strep (Life Technologies), 1% L-Glutamine (Thermo Scientific), 1% Na Pyruvate (Thermo Scientific)). […] Supernatants in the assay plate were decanted. Dilutions of PYY analogs and controls were prepared in 1×HBSS (Cellgro), 5 mM HEPES (Cellgro), 0.1% BSA (PerkinElmer) and 0.5 mM 3-isobutyl-1-methylxanthine (Sigma), and 6 μL/well of each sample were added to designated wells. […] All samples were measured in triplicate. Data were analyzed using the Crucible in-house data analysis software, designed by Eudean Shaw. The unknown cAMP concentrations within each well were interpolated from the reference standards of known cAMP concentrations included within each plate.

[1] = Y2R EC50 (nM) SEQ ID NO: 2-39, human NPY2R transfected HEK cells, NTSC-PYY compound

T1 sequence (P49146 whole entry): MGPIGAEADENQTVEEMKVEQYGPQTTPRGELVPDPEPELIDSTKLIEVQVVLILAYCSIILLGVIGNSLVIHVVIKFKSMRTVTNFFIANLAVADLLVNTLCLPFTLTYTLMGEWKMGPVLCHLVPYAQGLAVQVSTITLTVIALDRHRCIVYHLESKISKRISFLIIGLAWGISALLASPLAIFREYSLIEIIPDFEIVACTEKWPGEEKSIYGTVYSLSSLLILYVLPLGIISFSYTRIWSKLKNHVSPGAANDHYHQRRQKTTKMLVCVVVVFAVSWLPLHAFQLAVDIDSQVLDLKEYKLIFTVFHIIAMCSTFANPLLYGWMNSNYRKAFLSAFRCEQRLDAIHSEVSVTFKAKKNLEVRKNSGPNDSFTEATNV

Row | SMILES | EC50 (Y2R EC50 (nM) SEQ ID NO: 2-39) [nM] | EC50 [1] [nM]
1 | CC[C@H](C)[C@@H]1NC(=O)CCNC(=O)CSC[C@@H](C(=O)N[C@H](C(=O)N[C@H](C(=O)N[C@@H](CCCNC(=N)N)C(=O)N[C@@H](CCC(N)=O)C(=O)N[C@@H](CCCNC(=N)N)CN[C@@H](Cc2ccc(O)cc2)C(N)=O)[C@@H](C)O)C(C)C)NC(=O)[C@H](CC(N)=O)NC(=O)[C@H](CC(C)C)NC(=O)[C@H](Cc2ccc(O)cc2)NC(=O)[C@H](Cc2c[nH]cn2)NC(=O)[C@H](CCCNC(=N)N)NC(=O)[C@H](CC(C)C)NC(=O)[C@H](CO)NC(=O)[C@H](C)NC(=O)[C@H](Cc2ccc(O)cc2)NC(=O)[C@H](Cc2ccc(O)cc2)NC(=O)[C@H](CCCNC(=N)N)NC(=O)[C@H](CC(N)=O)NC(=O)[C@H](CC(C)C)NC(=O)[C@H](CCC(=O)O)NC(=O)[C@H](CCC(=O)O)NC(=O)[C@@H]2CCCN2C(=O)[C@H](CO)NC(=O)[C@H](C)NC(=O)[C@H](CCCCNC(=O)COCCOCCNC(=O)COCCOCCNC(=O)CC[C@H](NC(=O)CCCCCCCCCCCCCCCCC(=O)O)C(=O)O)NC(=O)[C@H](CCC(=O)O)NC(=O)CNC(=O)[C@@H]2CCCN2C(=O)[C@H](C)NC(=O)[C@H](CCC(=O)O)NC(=O)[C@@H]2CCCN2C(=O)[C@H](CCCCN)NC1=O [SEQ ID NO: 68] | 0.27 | 
2 | CCCCCCCCCCCCCCCC(=O)N[C@@H](CCC(=O)NCCCC[C@@H]1NC(=O)[C@H](CC(N)=O)NC(=O)[C@H](CC(C)C)NC(=O)[C@H](Cc2ccc(O)cc2)NC(=O)[C@H](C)NC(=O)[C@H](CCCNC(=N)N)NC(=O)[C@H](CC(C)C)NC(=O)[C@H](CO)NC(=O)[C@H](C)NC(=O)[C@H](Cc2ccc(O)cc2)NC(=O)[C@H](Cc2ccc(O)cc2)NC(=O)[C@H](CCCNC(=N)N)NC(=O)[C@H](CC(N)=O)NC(=O)[C@H](CC(C)C)NC(=O)[C@H](CCC(=O)O)NC(=O)[C@H](CCC(=O)O)NC(=O)[C@@H]2CCCN2C(=O)[C@H](CO)NC(=O)[C@H](C)NC(=O)[C@H](CC(=O)O)NC(=O)[C@H](CCC(=O)O)NC(=O)CNC(=O)[C@@H]2CCCN2C(=O)[C@H](C)NC(=O)[C@H](CCC(=O)O)NC(=O)[C@@H]2CCCN2C(=O)[C@H](C)NC(=O)[C@H]([C@@H](C)CC)NC(=O)c2cccc(c2)CSCC[C@@H](C(=O)N[C@H](C(=O)N[C@@H](CCCNC(=N)N)C(=O)N[C@@H](CCC(N)=O)C(=O)N[C@@H](CCCNC(=N)N)C(=O)N[C@@H](Cc2ccc(O)cc2)C(N)=O)[C@@H](C)O)NC1=O)C(=O)O [SEQ ID NO: 21] |  | 0.49
3 | CC[C@H](C)[C@@H]1NC(=O)CNC(=O)CC[C@@H](C(=O)N[C@H](C(=O)N[C@H](C(=O)N[C@@H](CCCNC(=N)N)C(=O)N[C@@H](CCC(N)=O)C(=O)N[C@@H](CCCNC(=N)N)CN[C@@H](Cc2ccc(O)cc2)C(N)=O)[C@@H](C)O)C(C)C)NC(=O)[C@H](CC(N)=O)NC(=O)[C@H](CC(C)C)NC(=O)[C@H](Cc2ccc(O)cc2)NC(=O)[C@H](Cc2c[nH]cn2)NC(=O)[C@H](CCCNC(=N)N)NC(=O)[C@H](CC(C)C)NC(=O)[C@H](CO)NC(=O)[C@H](C)NC(=O)[C@H](Cc2ccc(O)cc2)NC(=O)[C@H](Cc2ccc(O)cc2)NC(=O)[C@H](CCCNC(=N)N)NC(=O)[C@H](CC(N)=O)NC(=O)[C@H](CC(C)C)NC(=O)[C@H](CCC(=O)O)NC(=O)[C@H](CCC(=O)O)NC(=O)[C@@H]2CCCN2C(=O)[C@H](CO)NC(=O)[C@H](C)NC(=O)[C@H](CCCCNC(=O)COCCOCCNC(=O)COCCOCCNC(=O)CC[C@H](NC(=O)CCCCCCCCCCCCCCCCC(=O)O)C(=O)O)NC(=O)[C@H](CCC(=O)O)NC(=O)CNC(=O)[C@@H]2CCCN2C(=O)[C@H](C)NC(=O)[C@H](CCC(=O)O)NC(=O)[C@@H]2CCCN2C(=O)[C@H](CO)NC1=O [SEQ ID NO: 72] (GISPEAPGEK([AEEA-AEEA-γGlu-C18 diacid])ASPEELNRYYASLRHYLNEVTRQ-{Argψ(CH2NH)TyrNH2}; lactam N-29) |  | 1.75
4 | CCCCCCCCCCCCCCCC(=O)N[C@@H](CCC(=O)NCCCC[C@@H]1NC(=O)[C@H](CC(N)=O)NC(=O)[C@H](CC(C)C)NC(=O)[C@H](Cc2ccc(O)cc2)NC(=O)[C@H](C)NC(=O)[C@H](CCCNC(=N)N)NC(=O)[C@H](CC(C)C)NC(=O)[C@H](CO)NC(=O)[C@H](C)NC(=O)[C@H](Cc2ccc(O)cc2)NC(=O)[C@H](Cc2ccc(O)cc2)NC(=O)[C@H](CCCNC(=N)N)NC(=O)[C@H](CC(N)=O)NC(=O)[C@H](CC(C)C)NC(=O)[C@H](CCC(=O)O)NC(=O)[C@H](CCC(=O)O)NC(=O)[C@@H]2CCCN2C(=O)[C@H](CO)NC(=O)[C@H](C)NC(=O)[C@H](CC(=O)O)NC(=O)[C@H](CCC(=O)O)NC(=O)CNC(=O)[C@@H]2CCCN2C(=O)[C@H](C)NC(=O)[C@H](CCC(=O)O)NC(=O)[C@@H]2CCCN2C(=O)[C@H](CCC(=O)O)NC(=O)[C@H]([C@@H](C)CC)NC(=O)c2cccc(c2)CSCC[C@@H](C(=O)N[C@H](C(=O)N[C@@H](CCCNC(=N)N)C(=O)N[C@@H](CCC(N)=O)C(=O)N[C@@H](CCCNC(=N)N)C(=O)N[C@@H](Cc2ccc(O)cc2)C(N)=O)[C@@H](C)O)NC1=O)C(=O)O [SEQ ID NO: 22] | 4.4 | 
5 | CC[C@H](C)[C@@H]1NC(=O)CNC(=O)CC[C@@H](C(=O)N[C@H](C(=O)N[C@H](C(=O)N[C@@H](CCCNC(=N)N)C(=O)N[C@@H](CCC(N)=O)C(=O)N[C@@H](CCCNC(=N)N)CN[C@@H](Cc2ccc(O)cc2)C(N)=O)[C@@H](C)O)C(C)C)NC(=O)[C@H](CC(N)=O)NC(=O)[C@H](CC(C)C)NC(=O)[C@H](Cc2ccc(O)cc2)NC(=O)[C@H](Cc2c[nH]cn2)NC(=O)[C@H](CCCNC(=N)N)NC(=O)[C@H](CC(C)C)NC(=O)[C@H](CO)NC(=O)[C@H](C)NC(=O)[C@H](Cc2ccc(O)cc2)NC(=O)[C@H](Cc2ccc(O)cc2)NC(=O)[C@H](CCCNC(=N)N)NC(=O)[C@H](CC(N)=O)NC(=O)[C@H](CC(C)C)NC(=O)[C@H](CCC(=O)O)NC(=O)[C@H](CCC(=O)O)NC(=O)[C@@H]2CCCN2C(=O)[C@H](CO)NC(=O)[C@H](C)NC(=O)[C@H](CCCCN)NC(=O)[C@H](CCC(=O)O)NC(=O)CNC(=O)[C@@H]2CCCN2C(=O)[C@H](C)NC(=O)[C@H](CCC(=O)O)NC(=O)[C@@H]2CCCN2C(=O)[C@H](CO)NC1=O [SEQ ID NO: 70, [cyclo-(G2-E30), S4, K11, psi-(R35,Y36)]-PYY2-36] (HELM PEPTIDE1{G.I.S.P.E.A.P.G.E.K.A.S.P.E.E.L.N.R.Y.Y.A.S.L.R.H.Y.L.N.E.V.T.R.Q.[N=C(N)NCCC[C@@H](CN[C@@H](Cc1ccc(O)cc1)C(N)=O)N[*:1]]}$PEPTIDE1,PEPTIDE1,1:R1-29:R3$$$V2.0) | 0.02 | 
